From ChEMBL document CHEMBL1134504, “Synthesis and cytotoxic activity of 7-oxo-7H-dibenz[f,ij]isoquinoline and 7-oxo-7H-benzo[e]perimidine derivatives” (J Med Chem, 2001)
pIC50: −log10 of the molar value.

Columns and labels:
Jurkat [1] = assay: Inhibitory activity against Jurkat human leukemia cells; format: functional, cell-based
[2] = test system: Lewis lung carcinoma cell line; assay: Inhibitory activity against Lewis lung carcinoma cells; format: functional, cell-based; conditions: Mus musculus
Jurkat [3] = assay: Ratio of IC50 against Jurkat human leukemia amsacrine-resistant cells (JLA) to Jurkat human leukemia cells (JLC); format: functional
Jurkat [4] = assay: Ratio of IC50 against Jurkat human leukemia doxorubicin-resistant cells (JLD) to Jurkat human leukemia cells (JLC); format: functional
P388 = assay: Inhibitory activity against P388 murine leukemia cells; format: functional, cell-based; conditions: Mus musculus

| Compound | pIC50 (Jurkat [1]) | pIC50 [2] | IC50 ratio (Jurkat [3]) | IC50 ratio (Jurkat [4]) | pIC50 (P388) |
| --- | --- | --- | --- | --- | --- |
| O=C1c2ccccc2-c2cc(/C=N/NC3=NCCN3)nc3cccc1c23 | 6.37 | 6.08 | 1 | 1.1 | 6.47 |
| CN(C)CCNC(=O)c1cc2c3c(cccc3n1)C(=O)c1c(Cl)cccc1-2 | 6.12 | 6.32 | 1 | 0.9 | 6.10 |
| CN(C)CC/N=C/c1cc2c3c(cccc3n1)C(=O)c1ccccc1-2 | 5.47 | 5.61 | 0.6 | 0.8 | 5.21 |
| CN(CCNC(=O)c1cc2c3c(cccc3n1)C(=O)c1ccccc1-2)CCN(C)CCNC(=O)c1cc2c3c(cccc3n1)C(=O)c1ccccc1-2 | 6.25 | 6.33 | 0.2 | 0.8 | 6.10 |
| Cc1cc2c3c(cccc3n1)C(=O)c1cccc(C(=O)NCCN(C)C)c1-2 | 6.37 | 7.00 | 2.5 | 2.5 | 7.00 |
| CN(C)CCNC(=O)c1nc2c3c(cccc3n1)C(=O)c1ccccc1-2 | 5.91 | 5.99 | 1 | 0.9 | 5.82 |
| CC[C@@]1(O)C(=O)OCc2c1cc1n(c2=O)Cc2cc3ccccc3nc2-1 [CAMPTOTHECIN] | 8.25 | 7.48 | 2 | 1.4 | 7.89 |
| CN(C)CCNC(=O)c1cc2c3c(cccc3n1)C(=O)c1cccc(Cl)c1-2 | 6.62 | 6.89 | 0.7 | 0.8 | 6.89 |

More lines, now with the values ahead:

| pIC50 (Jurkat [1]) | pIC50 [2] | IC50 ratio (Jurkat [3]) | IC50 ratio (Jurkat [4]) | pIC50 (P388) | Compound |
| --- | --- | --- | --- | --- | --- |
| 6.10 | 6.70 | 0.9 | 1.6 | 5.24 | CN(C)CCNC(=O)c1cc2c3c(ccc(Cl)c3n1)C(=O)c1c(C(=O)NCCN(C)C)cccc1-2 |
| 6.26 | 7.01 | 0.8 | 1 | 6.96 | CN(C)CC(CN(C)C)c1cc2c3c(cccc3n1)C(=O)c1ccccc1-2 |
| 6.00 | 6.05 | 0.8 | 0.8 | 5.64 | CN(C)CCc1cc2c3c(cccc3n1)C(=O)c1ccccc1-2 |
|  |  | 85 | 74 |  | COc1cc(NS(C)(=O)=O)ccc1Nc1c2ccccc2nc2ccccc12 [AMSACRINE] |
| 6.78 | 7.46 | 0.2 | 0.8 | 6.22 | CN(C)CCNC(=O)c1cc2c3c(cccc3n1)C(=O)c1ccccc1-2 |
| 6.14 | 6.14 | 1.2 | 1 | 6.05 | Cc1cc2c3c(ccc(C(=O)NCCN(C)C)c3n1)C(=O)c1ccccc1-2 |
| 6.07 | 6.28 | 0.7 | 0.7 | 6.00 | CN(C)CCNc1nc2c3c(cccc3n1)C(=O)c1ccccc1-2 |
| 5.85 | 5.75 | 1 | 1.1 | 5.18 | Cc1cc2c3c(cccc3n1)C(=O)c1c(C(=O)NCCN(C)C)cccc1-2 |
| 5.94 | 5.97 | 0.8 | 0.9 | 5.89 | CN(C)CCNc1cc2c3c(cccc3n1)C(=O)c1ccccc1-2 |
